Measurements: US9587266B2, “Mutant luciferases” (University of Massachusetts, priority 2011, dated 2017)

What was measured:
[1] = biological target: T1, L286M luciferase (Photinus pyralis, UniProt P08659, L286M); assay: Bioluminescence emission scan; format: biochemical
T1 construct: The full firefly (Photinus pyralis) luciferase gene was PCR amplified from pGL3 (Promega); GST (N, cleaved yes); made in house; host or cells: E. coli JM109
Procedure: (§1) Purified mutant luciferases were used in bioluminescence emission and burst kinetics scans.
(§2) Luciferase was rapidly injected into a cuvette containing substrate, and the emission from 400-800 nm was recorded in a SPEX FluoroMax-3 fluorimeter with closed excitation slits.

[2] = biological target: T2, F247V luciferase (Photinus pyralis, UniProt P08659, F247V); assay: Bioluminescence emission scan; format: biochemical
T2 construct: The full firefly (Photinus pyralis) luciferase gene was PCR amplified from pGL3 (Promega); GST (N, cleaved yes); made in house; host or cells: E. coli JM109
T2 sequence (P08659 whole entry F247V): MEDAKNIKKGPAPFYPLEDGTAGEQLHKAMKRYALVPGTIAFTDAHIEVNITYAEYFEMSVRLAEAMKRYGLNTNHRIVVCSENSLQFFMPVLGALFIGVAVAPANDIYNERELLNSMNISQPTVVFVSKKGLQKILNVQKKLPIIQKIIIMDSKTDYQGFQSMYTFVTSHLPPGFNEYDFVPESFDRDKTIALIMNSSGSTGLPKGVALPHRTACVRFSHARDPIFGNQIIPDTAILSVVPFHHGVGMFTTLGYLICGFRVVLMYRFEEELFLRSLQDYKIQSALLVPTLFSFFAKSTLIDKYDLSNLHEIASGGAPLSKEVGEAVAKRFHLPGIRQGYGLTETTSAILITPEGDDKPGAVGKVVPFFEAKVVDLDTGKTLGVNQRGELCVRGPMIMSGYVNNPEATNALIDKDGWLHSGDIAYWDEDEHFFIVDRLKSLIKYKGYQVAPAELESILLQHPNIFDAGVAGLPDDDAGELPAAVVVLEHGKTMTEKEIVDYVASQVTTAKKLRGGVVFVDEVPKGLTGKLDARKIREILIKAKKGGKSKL
Procedure: as §1, §2

[3] = biological target: T3, F247R luciferase (Photinus pyralis, UniProt P08659, F247R); assay: Bioluminescence emission scan; format: biochemical
T3 construct: The full firefly (Photinus pyralis) luciferase gene was PCR amplified from pGL3 (Promega); GST (N, cleaved yes); made in house; host or cells: E. coli JM109
T3 sequence (P08659 whole entry F247R): as the sequence (P08659 whole entry F247V) above, with V247R counted along it
Procedure: as §1, §2

[4] = biological target: T4, T251S mutant luciferase in live CHO cells (Photinus pyralis, UniProt P08659, T251S); assay: Intact cell assay, transfected CHO cells; format: cell-based
T4 construct: The full firefly (Photinus pyralis) luciferase gene was PCR amplified from pGL3 (Promega); expressed in transfected cells; host or cells: CHO cells
T4 sequence (P08659 whole entry T251S): as the sequence (P08659 whole entry F247V) above, with V247F, T251S counted along it
Procedure: (§3) The mutants were cloned into the BamHI-Not I site of pcDNA 3.1 and transfected into CHO cells for live and lysed cell experiments. CHO-cell transfections were performed using Lipofectamine 2000 in 96-well white tissue culture treated plates (Costar) for intact cell assays, or 6-well plates for lysed cell assays. For intact cells, 0.075 μg DNA/well was transfected. For lysed cells, 2.25 μg DNA/well was transfected and one full 6-well plate was transfected for each mutant. Assays were performed in triplicate 24 hours post-transfection.
(§4) Transfected CHO cells were washed with HBSS and overlaid with 60 μL substrate in HBSS.

[5] = biological target: T5, R218K mutant luciferase in live CHO cells (Photinus pyralis, UniProt P08659, R218K); assay: Intact cell assay, transfected CHO cells; format: cell-based
T5 construct: The full firefly (Photinus pyralis) luciferase gene was PCR amplified from pGL3 (Promega); expressed in transfected cells; host or cells: CHO cells
T5 sequence (P08659 whole entry R218K): as the sequence (P08659 whole entry F247V) above, with R218K, V247F counted along it
Procedure: as §3, §4

T1 sequence (P08659 whole entry L286M): as the sequence (P08659 whole entry F247V) above, with V247F, L286M counted along it

What does the source list for `O=C(O)[C@H]1CSC(c2nc3cc4c(cc3s2)NCC4)=N1` [CycLuc1]?
Wavelength at Max. Emission [1]: 591 nm; Wavelength at Max. Emission [2]: 603 nm; Wavelength at Max. Emission [3]: 609 nm; substrate concentrations at which light output was superior to D-luciferin [4]: < 30 µM; substrate concentrations at which light output was superior to D-luciferin [5]: < 30 µM
